Measurements published in patent US8168651B2, “Protein kinase modulators” (Cylene Pharmaceuticals, Inc., priority 2008, dated 2012).
Read-outs that look alike come from different tables or passages of the source.

Tests used:
[1] = test system: HCT-116 human colorectal carcinoma cells; experiment: Cell-proliferation assay using Alamar Blue dye; format: cell-based; settings: Homo sapiens;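 note: cells exposed to compound for about 4 days, then Alamar Blue added and dye fluorescence read after about 4 h, compared with medium-only control wells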
K-562 [2] = experiment: Cell proliferation modulatory activity, K-562; format: cell-based; settings: Homo sapiens, K562
recombinant human PIM1 = recombinant human PIM1 (Homo sapiens (Human), UniProt P11309); experiment: PIM-1 kinase activity in cell-free in vitro assay; format: biochemical; settings: for inhibition at 0.5 µM: 500 nM compound, read-out: PIM-1: % inh 500 nM
Jurkat = experiment: Cell proliferation modulatory activity, Jurkat; format: cell-based; settings: Homo sapiens
K-562 [3] = experiment: Cell proliferation modulatory activity, K-562; format: cell-based; settings: Homo sapiens, K562; remark: listed apart in the source
MV-4-11 [4] = experiment: Cell proliferation modulatory activity, MV-4-11; format: cell-based; settings: Homo sapiens, MV4-11
recombinant human CK2 = recombinant human CK2 (Homo sapiens (Human), UniProt P68400); experiment: CK2 assay (cell-free, 33P-ATP filter plate); format: biochemical; settings: cell-free assay; for inhibition at 0.5 µM: 500 nM compound, read-out: CK2: % inh 500 nM
K-562 [5] = experiment: Cell proliferation modulatory activity, K-562; format: cell-based; settings: Homo sapiens, K562; K-562 cells
Flt3 = Flt3 (Homo sapiens (Human), UniProt P36888); experiment: FLT-3 kinase activity in cell free in vitro assay; format: biochemical; settings: cell-free assay; read-out: FLT-3 (uM) IC50
MV-4-11 [6] = experiment: Cell proliferation modulatory activity, MV-4-11; format: cell-based; settings: Homo sapiens, MV4-11; MV-4-11 cells
MV-4-11 [7] = experiment: Cell proliferation modulatory activity, MV-4-11; format: cell-based; settings: Homo sapiens, MV4-11; MV-4-11 cells; read-out: MV-4-11 (uM), cell proliferation modulatory activity
K-562 [8] = experiment: Cell proliferation modulatory activity, K-562; format: cell-based; settings: Homo sapiens, K562; K-562 cells; read-out: K-562 (uM), cell proliferation modulatory activity
[9] = HCT-116, read-out: HCT-116 (uM), cell proliferation modulatory activity, HCT-116, second column
[10] = HCT-116, read-out: HCT-116 (uM), cell proliferation modulatory activity, HCT-116, second HCT-116 column (c8)
[11] = HCT-116, HCT-116, second HCT-116 column (c8), read-out: HCT-116 (uM), cell proliferation modulatory activity
[12] = HCT-116, second of two HCT-116 columns (c8), read-out: HCT-116 (uM), cell proliferation modulatory activity

Sequence of recombinant human CK2 (P68400 whole entry): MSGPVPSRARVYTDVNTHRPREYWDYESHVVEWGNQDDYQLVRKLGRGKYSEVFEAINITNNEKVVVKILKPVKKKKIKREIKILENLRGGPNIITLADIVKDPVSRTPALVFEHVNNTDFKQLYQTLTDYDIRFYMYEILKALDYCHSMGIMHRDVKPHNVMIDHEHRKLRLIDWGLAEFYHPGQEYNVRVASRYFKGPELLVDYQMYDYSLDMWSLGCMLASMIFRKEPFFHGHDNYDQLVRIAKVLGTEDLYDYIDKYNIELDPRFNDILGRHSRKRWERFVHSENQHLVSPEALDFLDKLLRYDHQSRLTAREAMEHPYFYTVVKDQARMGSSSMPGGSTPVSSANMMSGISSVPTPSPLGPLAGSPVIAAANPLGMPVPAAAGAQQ
Sequence of recombinant human CK2 (P67870 whole entry partner): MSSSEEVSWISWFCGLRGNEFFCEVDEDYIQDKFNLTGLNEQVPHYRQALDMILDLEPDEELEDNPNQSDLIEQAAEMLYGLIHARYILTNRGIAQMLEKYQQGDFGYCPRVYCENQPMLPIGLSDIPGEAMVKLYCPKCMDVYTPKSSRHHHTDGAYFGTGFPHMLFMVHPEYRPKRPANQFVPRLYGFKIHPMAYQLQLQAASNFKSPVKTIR
Sequence of recombinant human PIM1 (P11309 whole entry): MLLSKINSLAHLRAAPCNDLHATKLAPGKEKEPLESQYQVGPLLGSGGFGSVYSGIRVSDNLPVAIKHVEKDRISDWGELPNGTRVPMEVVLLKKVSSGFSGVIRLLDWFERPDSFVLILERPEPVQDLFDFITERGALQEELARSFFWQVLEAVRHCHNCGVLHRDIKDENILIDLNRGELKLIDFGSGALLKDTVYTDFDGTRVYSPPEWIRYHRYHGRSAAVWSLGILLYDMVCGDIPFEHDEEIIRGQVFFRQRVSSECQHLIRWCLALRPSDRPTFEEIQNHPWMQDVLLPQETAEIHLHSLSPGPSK
Sequence of Flt3 (P36888 27-993): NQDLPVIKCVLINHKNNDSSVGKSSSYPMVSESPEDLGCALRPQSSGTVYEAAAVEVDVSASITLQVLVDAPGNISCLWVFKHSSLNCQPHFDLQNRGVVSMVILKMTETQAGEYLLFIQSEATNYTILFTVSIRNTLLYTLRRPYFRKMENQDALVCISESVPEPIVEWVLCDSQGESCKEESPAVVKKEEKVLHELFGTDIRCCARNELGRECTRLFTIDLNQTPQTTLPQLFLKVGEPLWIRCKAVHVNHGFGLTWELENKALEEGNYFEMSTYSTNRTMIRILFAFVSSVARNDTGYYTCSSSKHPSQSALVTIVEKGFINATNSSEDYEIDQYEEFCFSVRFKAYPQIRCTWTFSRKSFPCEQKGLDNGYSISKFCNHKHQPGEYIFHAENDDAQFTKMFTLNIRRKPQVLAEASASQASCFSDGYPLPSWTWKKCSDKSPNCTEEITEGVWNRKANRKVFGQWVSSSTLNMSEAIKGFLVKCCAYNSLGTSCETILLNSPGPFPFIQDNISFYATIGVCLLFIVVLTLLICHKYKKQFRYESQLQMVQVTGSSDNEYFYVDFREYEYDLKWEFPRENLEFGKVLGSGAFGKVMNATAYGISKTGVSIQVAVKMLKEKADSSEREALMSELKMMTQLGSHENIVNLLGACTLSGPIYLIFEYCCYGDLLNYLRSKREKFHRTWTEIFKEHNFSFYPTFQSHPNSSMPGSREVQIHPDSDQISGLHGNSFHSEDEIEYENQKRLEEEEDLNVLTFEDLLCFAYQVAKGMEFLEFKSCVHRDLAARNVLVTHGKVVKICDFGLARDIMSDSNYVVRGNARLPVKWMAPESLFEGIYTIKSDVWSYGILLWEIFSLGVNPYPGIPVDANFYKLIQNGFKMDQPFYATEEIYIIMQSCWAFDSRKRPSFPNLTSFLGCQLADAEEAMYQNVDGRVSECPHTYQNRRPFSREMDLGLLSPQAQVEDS

## O=C(O)c1ccc2c(c1)nc(Nc1cccc(F)c1)c1ncncc12
[1]; [9]
  IC50: 7.1 µM
K-562 [2]
  IC50: 1.77 µM
Recombinant human PIM1; cell-free
  inhibition at 0.5 µM: 77.8%
  IC50: 367 nM

## O=C(O)c1ccc2c(c1)nc(Nc1ccccc1)c1nc(NC3CC3)ncc12
Jurkat
  IC50: 2.42 µM
K-562 [3]
  IC50: 0.494 µM
[1]; [10]
  IC50: 1.94 µM
MV-4-11 [4]
  IC50: 0.195 µM
Recombinant human PIM1; cell-free assay
  inhibition at 0.5 µM: 18.4%

## O=C(O)c1ccc2c(c1)nc(Nc1ccccc1)c1nc(NCCO)ncc12
K-562 [3]
  IC50: > 10 µM
MV-4-11 [4]
  IC50: > 10 µM
Recombinant human PIM1; cell-free assay
  inhibition at 0.5 µM: 45.6%

## O=C(O)c1ccc2c(c1)nc(Nc1ccccc1)c1nc(NCCN3CCOCC3)ncc12
Jurkat
  IC50: 5.7 µM
K-562 [3]
  IC50: 1.16 µM
MV-4-11 [4]
  IC50: 0.358 µM
Recombinant human PIM1; cell-free assay
  inhibition at 0.5 µM: 30.6%

## C#Cc1cccc(Nc2nc3cc(C(=O)O)ccc3c3cnc(NC4CCNCC4)nc23)c1
K-562 [3]
  IC50: > 10 µM
MV-4-11 [4]
  IC50: 0.237 µM
Recombinant human PIM1; cell-free assay
  inhibition at 0.5 µM: 29%

## O=C(O)c1ccc2c(c1)nc(Nc1ccc(Cl)c(C(F)(F)F)c1)c1ccncc12
Jurkat
  IC50: 3.05 µM
K-562 [3]
  IC50: > 10 µM
[1]; [10]
  IC50: 3.99 µM
MV-4-11 [4]
  IC50: > 10 µM
Recombinant human PIM1; cell-free assay
  inhibition at 0.5 µM: 73.6%
  IC50: 408 nM

## O=C(O)c1ccc2c(c1)nc(Nc1cccc(Cl)c1)c1nc(NC3CC3)ncc12
Jurkat
  IC50: 1.29 µM
K-562 [3]
  IC50: 0.158 µM
[1]; [10]
  IC50: 7.82 µM
MV-4-11 [4]
  IC50: 0.257 µM

## CNc1ncc2c(n1)c(Nc1ccc(F)c(Cl)c1)nc1cc(C(=O)O)ccc12
Jurkat
  IC50: 1.24 µM
K-562 [3]
  IC50: > 10 µM
MV-4-11 [4]
  IC50: 0.655 µM
Recombinant human PIM1; cell-free assay
  inhibition at 0.5 µM: 18.6%

## O=C(O)c1ccc2c(c1)nc(Nc1ccc(F)c(Cl)c1)c1nc(NC3CC3)ncc12
Jurkat
  IC50: 1.54 µM
K-562 [3]
  IC50: > 10 µM
MV-4-11 [4]
  IC50: > 10 µM
Recombinant human PIM1; cell-free assay
  inhibition at 0.5 µM: 6.63%

## C#Cc1cccc(Nc2nc3cc(C(=O)O)ccc3c3cnc(NCCOCC)nc23)c1
Jurkat
  IC50: 1.13 µM
K-562 [3]
  IC50: > 10 µM
MV-4-11 [4]
  IC50: 0.141 µM
Recombinant human PIM1; cell-free assay
  inhibition at 0.5 µM: 12.1%

## Cc1cccc(Nc2nc3cc(C(=O)O)ccc3c3cnccc23)c1
Jurkat
  IC50: 3.45 µM
K-562 [3]
  IC50: > 10 µM
MV-4-11 [4]
  IC50: 0.593 µM
Recombinant human PIM1; cell-free assay
  inhibition at 0.5 µM: 86.7%
  IC50: 177 nM

## O=C(O)c1ccc2c(c1)nc(Nc1cccc(C(F)(F)F)c1)c1ccncc12
Jurkat
  IC50: 3.15 µM
K-562 [3]
  IC50: > 10 µM
[1]; [10]
  IC50: 5.14 µM
MV-4-11 [4]
  IC50: 0.354 µM
Recombinant human PIM1; cell-free assay
  inhibition at 0.5 µM: 88.8%
  IC50: 160 nM

## O=C(NC1CC1)c1ccc2c(c1)nc(NC1CC1)c1nc(NC3CC3)ncc12
Jurkat
  IC50: 0.436 µM
K-562 [3]
  IC50: > 10 µM
Recombinant human CK2; 15 um ATP, read-out: CK2 (15 um ATP) IC50
  IC50: > 750 nM
[1]; [11]
  IC50: 0.818 µM
MV-4-11 [4]
  IC50: 0.497 µM
Recombinant human PIM1; cell-free assay
  inhibition at 0.5 µM: -11.9%

## C#Cc1cccc(Nc2nc3cc(C(=O)N(C)C)ccc3c3cncnc23)c1
Jurkat
  IC50: 1.18 µM
K-562 [3]
  IC50: 9.79 µM
[1]; [11]
  IC50: 0.545 µM
MV-4-11 [4]
  IC50: 4.62 µM
Recombinant human PIM1; cell-free assay
  inhibition at 0.5 µM: -27.8%

## O=C(O)c1ccc2c(c1)nc(NC1CC1)c1nc(Nc3ccc(F)cc3F)ncc12
K-562 [3]
  IC50: > 10 µM
[1]; [11]
  IC50: > 10 µM
MV-4-11 [4]
  IC50: 2.29 µM

## O=C(O)c1ccc2c(c1)nc(NC1CC1)c1nc(Nc3ccc(F)c(F)c3)ncc12
K-562 [3]
  IC50: > 10 µM
Recombinant human CK2
  inhibition at 0.5 µM: 96.3%
[1]; [11]
  IC50: > 10 µM
MV-4-11 [4]
  IC50: 1.86 µM
Recombinant human PIM1; cell-free assay
  inhibition at 0.5 µM: 14.1%

## Cc1cnc(CNC(=O)c2ccc3c(c2)nc(N2CCN(C)CC2)c2ccsc23)cn1
K-562 [3]
  IC50: > 10 µM
Recombinant human CK2
  inhibition at 0.5 µM: -15%
[1]; [11]
  IC50: > 10 µM
MV-4-11 [4]
  IC50: > 10 µM
Recombinant human PIM1; cell-free assay
  inhibition at 0.5 µM: 37.3%

## O=C(O)c1ccc2c(c1)nc(NCCc1ccccn1)c1ccncc12
K-562 [3]
  IC50: > 10 µM
Recombinant human CK2
  inhibition at 0.5 µM: 96.1%
[1]; [11]
  IC50: > 10 µM
MV-4-11 [4]
  IC50: > 10 µM
Recombinant human PIM1; cell-free assay
  inhibition at 0.5 µM: -8.95%

## O=C(O)c1ccc2c(c1)nc(NCc1ccccn1)c1ccncc12
K-562 [3]
  IC50: > 10 µM
Recombinant human CK2
  inhibition at 0.5 µM: 96.6%
[1]; [11]
  IC50: > 10 µM
MV-4-11 [4]
  IC50: > 10 µM
Recombinant human PIM1; cell-free assay
  inhibition at 0.5 µM: 14.3%

## O=C(O)c1ccc2c(c1)nc(N1CCC(N3CCOCC3)CC1)c1ccncc12
K-562 [3]
  IC50: > 10 µM
Recombinant human CK2
  inhibition at 0.5 µM: 90.5%
[1]; [11]
  IC50: > 10 µM
MV-4-11 [4]
  IC50: > 10 µM
Recombinant human PIM1; cell-free assay
  inhibition at 0.5 µM: 20.7%
  IC50: 310 nM

## COc1ccc(CCNc2nc3cc(C(=O)O)ccc3c3cnccc23)cc1OC
K-562 [3]
  IC50: > 10 µM
Recombinant human CK2
  inhibition at 0.5 µM: 99%
[1]; [11]
  IC50: > 10 µM
MV-4-11 [4]
  IC50: > 10 µM
Recombinant human PIM1; cell-free assay
  inhibition at 0.5 µM: 9.85%

## Cc1ccccc1Nc1nc2cc(C(=O)O)ccc2c2cnccc12
Jurkat
  IC50: 15.7 µM
K-562 [3]
  IC50: > 10 µM
[1]; [11]
  IC50: > 10 µM
MV-4-11 [4]
  IC50: 0.985 µM
Recombinant human PIM1; cell-free assay
  inhibition at 0.5 µM: 92.3%
  IC50: 158 nM

## O=C(O)c1ccc2c(c1)nc(Nc1ccc(Br)cc1F)c1ccncc12
K-562 [5]
  IC50: > 10 µM
[1]; HCT-116, second HCT-116 column (c8), read-out: HCT-116 (uM) cell proliferation modulatory activity
  IC50: > 10 µM
Flt3
  IC50: 0.087 µM
MV-4-11 [6]
  IC50: 7.26 µM
Recombinant human PIM1; cell-free assay
  IC50: 339 nM

## NC(=O)c1ccc2c(c1)nc(Nc1cc(F)cc(Cl)c1)c1ccncc12
K-562 [5]
  IC50: > 10 µM
Recombinant human CK2
  inhibition at 0.5 µM: 55.9%
Flt3
  IC50: 0.012 µM
MV-4-11 [6]
  IC50: 0.222 µM
Recombinant human PIM1; cell-free assay
  inhibition at 0.5 µM: 5.67%

## FC(F)(F)c1cccc(Nc2nc3cc(-c4nnn[nH]4)ccc3c3ccsc23)c1
MV-4-11 [7]
  IC50: 1.1 µM
Recombinant human CK2
  inhibition at 0.5 µM: 17.4%
[1]; [12]
  IC50: > 10 µM
K-562 [8]
  IC50: > 10 µM
Recombinant human PIM1; cell-free assay
  inhibition at 0.5 µM: 10.8%

## Fc1ccc(Nc2nc3cc(-c4nnn[nH]4)ccc3c3ccsc23)cc1Cl
MV-4-11 [7]
  IC50: 0.721 µM
Recombinant human CK2
  inhibition at 0.5 µM: 37.6%
[1]; [12]
  IC50: > 10 µM
K-562 [8]
  IC50: > 10 µM
Recombinant human PIM1; cell-free assay
  inhibition at 0.5 µM: 29.1%

## Clc1ccc(Nc2nc3cc(-c4nnn[nH]4)ccc3c3ccsc23)cc1
MV-4-11 [7]
  IC50: > 10 µM
Recombinant human CK2
  inhibition at 0.5 µM: 23.9%
[1]; [12]
  IC50: > 10 µM
K-562 [8]
  IC50: > 10 µM
Recombinant human PIM1; cell-free assay
  inhibition at 0.5 µM: 40.4%

## Fc1ccc(Nc2nc3cc(-c4nnn[nH]4)ccc3c3ccsc23)cc1
MV-4-11 [7]
  IC50: > 10 µM
Recombinant human CK2
  inhibition at 0.5 µM: 30.3%
[1]; [12]
  IC50: > 10 µM
K-562 [8]
  IC50: > 10 µM
Recombinant human PIM1; cell-free assay
  inhibition at 0.5 µM: 54.7%
  IC50: 738 nM

## O=C(O)c1ccc2c(c1)nc(NCCc1cccc(Cl)c1)c1ccncc12 [drawing 1559]
[1]; [9]
  IC50: > 10 µM
K-562 [2]
  IC50: 9.18 µM
Recombinant human PIM1; cell-free
  inhibition at 0.5 µM: 43.1%
  IC50: 1060 nM

## O=C(O)c1ccc2c(c1)nc(NCCCc1ccccc1)c1ccncc12 [drawing 1561]
[1]; [9]
  IC50: > 10 µM
K-562 [2]
  IC50: 7.17 µM
Recombinant human PIM1; cell-free
  inhibition at 0.5 µM: 69.7%
  IC50: 441 nM

## C#Cc1cccc(Nc2nc3cc(C(=O)O)ccc3c3cnc(NCC4CCCO4)nc23)c1 (centres unmarked) [drawing 1605]
Jurkat
  IC50: 2.04 µM
K-562 [3]
  IC50: > 10 µM
[1]; [10]
  IC50: > 10 µM
MV-4-11 [4]
  IC50: 0.284 µM
Recombinant human PIM1; cell-free assay
  inhibition at 0.5 µM: 1.48%

## C#Cc1cccc(Nc2nc3cc(C(=O)O)ccc3c3cnc(NCC4CC4)nc23)c1 [drawing 1606]
Jurkat
  IC50: 0.424 µM
K-562 [3]
  IC50: 0.25 µM
[1]; [10]
  IC50: > 10 µM
MV-4-11 [4]
  IC50: 0.128 µM
Recombinant human PIM1; cell-free assay
  inhibition at 0.5 µM: 3.08%
